The values that follow are results of earlier work, collected in PMC9972852, “Multivalent effect of peptide functionalized polymeric nanoparticles towards selective prostate cancer targeting” (Nanoscale Advances, 2023).

The data set relates to extracellular domain of PSMA. The following applies: monomeric peptide WQPDTAHHWATL
An excerpt: Prostate specific membrane antigen (PSMA) is a 100 kDa type II transmembrane glycosylated protein with folate hydrolase activity and is overexpressed not only in nearly all prostate cancer cells,[6] but also in tumor neovasculature in a variety of cancers.[6–8] In contrast, it has minimal expression (100–1000 times lower) in normal prostate epithelium tissues and other normal tissues,[7,9] making it an ideal biomarker for the design of various targeted therapies. Several different kinds of targeting ligands against PSMA have been discovered over the years;[10–12] however, they have not yet had ...

On to “WQPDTAHHWATLC [WQP peptide, PSMA-targeting cell targeting peptide …, synthesized with an added C-terminal cysteine]”, for which the “Binding affinity to the extracellular domain of PSMA” value was “moderate/low”.
